Residual activity data for 24 compounds are collected here from the kinase profiling compilation of Christmann-Franck et al. (2016).

Targets include EPHA6 (human) (UniProt Q9UF33); PRKACG (human) (UniProt P22612); ULK3 (human) (UniProt Q6PHR2); BRAF (human) (UniProt P15056).
What all share (test): radiometric filter-binding kinase assay, Kinase HotSpot
Conditions in all cases: compound 0.5 µM; ATP 10 µM

Sequence of ULK3 (human) (Q6PHR2 whole entry, looked up): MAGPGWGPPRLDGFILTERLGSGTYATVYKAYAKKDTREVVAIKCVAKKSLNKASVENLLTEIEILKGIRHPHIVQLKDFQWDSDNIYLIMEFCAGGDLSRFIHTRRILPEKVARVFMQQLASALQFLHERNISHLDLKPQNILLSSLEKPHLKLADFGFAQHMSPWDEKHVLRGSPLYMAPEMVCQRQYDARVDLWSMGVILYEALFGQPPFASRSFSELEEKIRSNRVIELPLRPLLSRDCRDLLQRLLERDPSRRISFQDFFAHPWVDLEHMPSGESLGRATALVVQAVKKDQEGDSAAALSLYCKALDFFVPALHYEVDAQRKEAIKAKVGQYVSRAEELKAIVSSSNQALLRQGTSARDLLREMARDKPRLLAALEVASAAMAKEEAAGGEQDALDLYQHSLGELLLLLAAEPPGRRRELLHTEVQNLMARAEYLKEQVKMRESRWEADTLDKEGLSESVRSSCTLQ
Sequence of PRKACG (human) (P22612 whole entry, looked up): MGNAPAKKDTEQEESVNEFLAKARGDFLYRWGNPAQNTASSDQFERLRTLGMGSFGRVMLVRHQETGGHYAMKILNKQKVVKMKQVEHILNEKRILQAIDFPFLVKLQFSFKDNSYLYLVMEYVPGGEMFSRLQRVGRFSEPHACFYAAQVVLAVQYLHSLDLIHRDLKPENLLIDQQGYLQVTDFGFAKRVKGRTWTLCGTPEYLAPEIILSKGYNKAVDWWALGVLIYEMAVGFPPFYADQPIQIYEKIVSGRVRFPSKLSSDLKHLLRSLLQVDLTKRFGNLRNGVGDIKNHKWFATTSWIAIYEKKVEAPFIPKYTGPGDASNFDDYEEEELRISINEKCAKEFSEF
Sequence of BRAF (human) (P15056 whole entry, looked up): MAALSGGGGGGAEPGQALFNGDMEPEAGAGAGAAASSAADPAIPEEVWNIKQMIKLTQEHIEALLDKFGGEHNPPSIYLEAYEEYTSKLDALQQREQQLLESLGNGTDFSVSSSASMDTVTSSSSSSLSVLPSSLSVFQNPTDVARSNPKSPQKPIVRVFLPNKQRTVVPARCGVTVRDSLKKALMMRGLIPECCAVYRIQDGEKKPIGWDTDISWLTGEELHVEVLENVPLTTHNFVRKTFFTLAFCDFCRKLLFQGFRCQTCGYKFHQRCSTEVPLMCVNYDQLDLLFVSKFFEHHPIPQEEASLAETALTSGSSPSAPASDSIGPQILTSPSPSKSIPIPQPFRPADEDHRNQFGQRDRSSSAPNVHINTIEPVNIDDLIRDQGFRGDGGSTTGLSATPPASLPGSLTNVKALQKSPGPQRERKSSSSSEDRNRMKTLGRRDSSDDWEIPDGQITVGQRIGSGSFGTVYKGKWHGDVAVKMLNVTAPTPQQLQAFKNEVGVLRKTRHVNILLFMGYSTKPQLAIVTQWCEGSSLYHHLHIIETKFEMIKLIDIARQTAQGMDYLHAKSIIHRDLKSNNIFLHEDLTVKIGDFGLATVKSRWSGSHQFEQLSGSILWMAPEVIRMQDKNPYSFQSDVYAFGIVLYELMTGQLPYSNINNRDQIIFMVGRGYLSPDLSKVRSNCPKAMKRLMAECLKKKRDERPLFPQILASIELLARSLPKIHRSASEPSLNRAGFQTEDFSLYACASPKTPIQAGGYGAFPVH
Sequence of EPHA6 (human) (Q9UF33 whole entry, looked up): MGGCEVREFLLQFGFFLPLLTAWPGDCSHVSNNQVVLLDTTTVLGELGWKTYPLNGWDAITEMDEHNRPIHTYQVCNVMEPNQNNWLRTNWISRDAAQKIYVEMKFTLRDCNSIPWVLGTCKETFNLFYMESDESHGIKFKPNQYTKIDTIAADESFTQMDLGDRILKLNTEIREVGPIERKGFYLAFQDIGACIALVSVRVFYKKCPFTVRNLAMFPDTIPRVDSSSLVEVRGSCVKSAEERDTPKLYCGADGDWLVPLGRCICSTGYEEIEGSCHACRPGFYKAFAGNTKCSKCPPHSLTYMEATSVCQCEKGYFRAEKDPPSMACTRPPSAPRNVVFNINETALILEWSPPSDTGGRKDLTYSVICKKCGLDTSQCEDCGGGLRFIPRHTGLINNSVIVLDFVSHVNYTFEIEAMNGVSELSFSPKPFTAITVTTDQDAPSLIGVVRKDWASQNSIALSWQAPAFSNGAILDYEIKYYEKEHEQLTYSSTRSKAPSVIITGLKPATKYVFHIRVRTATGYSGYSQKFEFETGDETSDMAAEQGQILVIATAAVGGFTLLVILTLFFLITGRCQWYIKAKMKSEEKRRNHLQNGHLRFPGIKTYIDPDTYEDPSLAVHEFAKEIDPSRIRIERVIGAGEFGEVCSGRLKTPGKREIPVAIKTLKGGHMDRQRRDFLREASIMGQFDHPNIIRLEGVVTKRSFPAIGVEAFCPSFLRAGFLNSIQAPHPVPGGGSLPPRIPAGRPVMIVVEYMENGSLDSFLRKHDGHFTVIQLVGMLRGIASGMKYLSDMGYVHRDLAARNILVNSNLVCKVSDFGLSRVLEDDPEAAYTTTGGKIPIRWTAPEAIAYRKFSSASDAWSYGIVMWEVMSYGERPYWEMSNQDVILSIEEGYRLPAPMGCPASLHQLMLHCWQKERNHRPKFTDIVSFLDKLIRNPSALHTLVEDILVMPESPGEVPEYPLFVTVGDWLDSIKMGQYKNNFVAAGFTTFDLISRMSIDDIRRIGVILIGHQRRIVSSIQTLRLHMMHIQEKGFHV

As a reminder, the residual activity is the signal under treatment as a percentage of the control signal. Consider `O=C1c2ccccc2-c2nc3nnnn3nc21`, for which the residual activity amounted to 106% at EPHA6 (human), 88.5% at PRKACG (human) and 103% on ULK3 (human).

In the case of `Cc1cccc(-c2nc(C(C)(C)C)[nH]c2-c2ccc3c(c2)OCO3)n1`, the residual activity on BRAF (human) is 111%; at EPHA6 (human) it was 92.7%; on PRKACG (human), 119%; at ULK3 (human), 80.4%.

Take `CN(C)CCCn1cc(C2=C(c3c[nH]c4ccccc34)C(=O)NC2=O)c2ccccc21`: the residual activity at BRAF (human) came to 103%.

In the case of `COc1ccc(Cl)cc1NC(=O)Nc1cc(C)nc2ccccc12`, the residual activity at BRAF (human) was 98.9%.

Turning to `Cc1cncc2cccc(S(=O)(=O)N3CCCN(C(=O)CN)C[C@H]3C)c12`, the residual activity at EPHA6 (human) was 92.2%; at PRKACG (human) it was 112%; on ULK3 (human), 83.2%.

Consider `COc1cc2ncnc(Nc3ccc(Oc4ccccc4)cc3)c2cc1OC`, for which the residual activity on BRAF (human) is 79.6%; at EPHA6 (human) it was 64.8%; on PRKACG (human), 137%; on ULK3 (human), 94.7%.

Turning to `CO[C@@H]1[C@H](N(C)C(=O)c2ccccc2)C[C@H]2O[C@]1(C)n1c3ccccc3c3c4c(c5c6ccccc6n2c5c31)C(=O)NC4`, the residual activity at BRAF (human) turned out to be 106%; on EPHA6 (human) it was 79.5%; on PRKACG (human) it was 58.1%; on ULK3 (human), 37%.

Take `C[C@@H]1CCN(C(=O)CC#N)C[C@@H]1N(C)c1ncnc2[nH]ccc12`: the residual activity at BRAF (human) was 93.7%; at EPHA6 (human), 99%; at PRKACG (human) it was 111%; on ULK3 (human), 101%.

`O=C1NC(=O)c2c1c1c3ccccc3[nH]c1n1cncc21`: the residual activity on BRAF (human) was found to be 101%.

For the compound `c1ccc2c(-c3ccncc3)c[nH]c2c1`, the residual activity at BRAF (human) came out at 94%; at EPHA6 (human) it was 104%; on PRKACG (human), 107%; on ULK3 (human), 83%.

With `CS(=O)(=O)CCNCc1ccc(-c2ccc3ncnc(Nc4ccc(OCc5cccc(F)c5)c(Cl)c4)c3c2)o1`, the residual activity on EPHA6 (human) amounted to 115%; at PRKACG (human), 110%; at ULK3 (human) it was 106%.

`CN(C)S(=O)(=O)c1ccc2c(c1)/C(=C/c1cc3c([nH]1)CCCC3)C(=O)N2`: the residual activity on BRAF (human) turned out to be 89.2%; on EPHA6 (human), 61.9%; at PRKACG (human), 114%; at ULK3 (human), 26.3%.

Take `Cc1nc(-c2ccccc2)c(-c2ccncc2)o1`: the residual activity on EPHA6 (human) came to 95.9%; on PRKACG (human) it was 108%; on ULK3 (human), 94.3%.

Consider `Cn1c2ccccc2c2c3c(c4c5ccccc5n(CCC#N)c4c21)CNC3=O`, for which the residual activity on BRAF (human) came out at 110%.

In the case of `Fc1ccc(-c2nc3n(c2-c2ccncc2)CCS3)cc1`, the residual activity on EPHA6 (human) was found to be 94.7%; at PRKACG (human) it was 116%; on ULK3 (human) it was 79.2%.

Consider `O=C(c1cc2cc(O)ccc2[nH]1)c1cc2cc(O)ccc2[nH]1`, for which, on BRAF (human), the residual activity is 97.4%.

Regarding `O=C1Nc2ccc(Br)cc2/C1=C\c1cc2c([nH]1)CCCC2`, the residual activity was 92.5% at BRAF (human), 89.2% at EPHA6 (human), 98.1% on PRKACG (human) and 55.5% on ULK3 (human).

Regarding `COc1cc(Nc2c(C#N)cnc3cc(OCCCN4CCN(C)CC4)c(OC)cc23)c(Cl)cc1Cl`, the residual activity is 91.7% on BRAF (human), 4.38% on EPHA6 (human), 99.2% at PRKACG (human) and 100% at ULK3 (human).

Consider `N#Cc1c[nH]c2c[nH]/c(=N\Cc3cccnc3)cc2/c1=N\c1ccc(F)c(Cl)c1`, for which the residual activity is 106% on BRAF (human), 76.2% at EPHA6 (human), 115% on PRKACG (human) and 72% at ULK3 (human).

In the case of `CN(C)c1ccc(/C=C2\C(=O)Nc3ccccc32)cc1`, the residual activity at BRAF (human) worked out at 101%.

In the case of `COc1ccc2c(c1)/C(=C/c1cnc[nH]1)C(O)=N2`, the residual activity on BRAF (human) was 98.4%; at EPHA6 (human) it was 91.3%; at PRKACG (human), 110%; on ULK3 (human), 67.9%.

Turning to `O=C1C(Cl)=C(N2C(=O)CCC2=O)C(=O)c2ccccc21`, the residual activity at BRAF (human) is 96.3%; at EPHA6 (human) it was 89.5%; at PRKACG (human) it was 95.1%; on ULK3 (human), 102%.

As for `N#C/C(=C\c1ccc(O)c(O)c1)C(=O)NCc1ccccc1`, the residual activity amounted to 109% at BRAF (human), 95.7% on EPHA6 (human), 90.7% on PRKACG (human) and 71.2% at ULK3 (human).

In the case of `COc1ccc(S(=O)(=O)N(CCO)c2ccccc2CN(C)C/C=C/c2ccc(Cl)cc2)cc1`, the results for the residual activity at EPHA6 (human), at PRKACG (human) and on ULK3 (human) were 95.3%, 104% and 106%, respectively.
